In patent US10793538B2, “Cycloalkenyl hydroxamic acid derivatives and their use as histone deacetylase inhibitors” (The Broad Institute, Inc., priority 2012, dated 2020):

Key:
Experiment in all cases: HDAC isoform inhibition, microfluidic lab-on-a-chip (Caliper) assay
HDAC1 = target: T1, HDAC1 (Homo sapiens, UniProt Q13547); type: biochemical; conditions: HDAC isoform 1; 2 μM FAM-labeled acetylated peptide substrate, 60 min, room temperature
T1 construct: purchased BPS Bioscience

HDAC2 = target: T2, HDAC2 (Homo sapiens, UniProt Q92769); type: biochemical; conditions: HDAC isoform 2; 2 μM FAM-labeled acetylated peptide substrate, 60 min, room temperature
T2 construct: purchased BPS Bioscience
T2 sequence (Q92769 whole entry, canonical isoform): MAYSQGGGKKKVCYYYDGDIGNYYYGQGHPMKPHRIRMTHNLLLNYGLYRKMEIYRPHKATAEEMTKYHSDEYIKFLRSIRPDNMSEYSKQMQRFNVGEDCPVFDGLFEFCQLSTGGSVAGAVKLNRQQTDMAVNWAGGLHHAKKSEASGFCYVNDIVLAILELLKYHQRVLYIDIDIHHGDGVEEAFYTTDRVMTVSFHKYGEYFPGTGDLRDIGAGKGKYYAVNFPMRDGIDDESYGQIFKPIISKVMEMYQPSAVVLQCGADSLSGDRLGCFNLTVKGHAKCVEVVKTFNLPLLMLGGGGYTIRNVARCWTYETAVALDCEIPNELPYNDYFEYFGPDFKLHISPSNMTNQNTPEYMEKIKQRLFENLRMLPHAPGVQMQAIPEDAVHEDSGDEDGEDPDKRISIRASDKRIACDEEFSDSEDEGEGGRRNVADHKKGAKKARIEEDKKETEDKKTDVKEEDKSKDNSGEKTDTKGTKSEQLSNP

HDAC3 = target: T3, HDAC3 (Homo sapiens, UniProt O15379); type: biochemical; conditions: HDAC isoform 3; 2 μM FAM-labeled acetylated peptide substrate, 60 min, room temperature
T3 construct: purchased BPS Bioscience
T3 sequence (O15379 whole entry, canonical isoform): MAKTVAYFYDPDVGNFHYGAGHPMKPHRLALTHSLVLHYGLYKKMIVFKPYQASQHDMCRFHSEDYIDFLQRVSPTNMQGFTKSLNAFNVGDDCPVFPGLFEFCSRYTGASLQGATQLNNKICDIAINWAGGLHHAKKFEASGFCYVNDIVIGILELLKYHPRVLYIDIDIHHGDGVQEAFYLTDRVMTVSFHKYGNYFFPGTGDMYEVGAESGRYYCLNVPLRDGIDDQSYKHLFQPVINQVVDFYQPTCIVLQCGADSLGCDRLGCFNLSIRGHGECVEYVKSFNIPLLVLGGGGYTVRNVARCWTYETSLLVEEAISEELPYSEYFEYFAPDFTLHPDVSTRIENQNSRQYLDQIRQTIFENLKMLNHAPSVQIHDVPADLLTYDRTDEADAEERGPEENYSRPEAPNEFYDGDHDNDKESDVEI
T3 sequence (Q9Y618 395-489 partner limits assumed): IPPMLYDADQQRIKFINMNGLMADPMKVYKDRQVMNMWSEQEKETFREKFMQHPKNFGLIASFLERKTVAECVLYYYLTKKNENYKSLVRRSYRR

HDAC5 = target: T4, HDAC5 (Homo sapiens, UniProt Q9UQL6); type: biochemical; conditions: HDAC isoform 5; 2 μM FAM-labeled acetylated peptide substrate, 60 min, room temperature
T4 construct: purchased BPS Bioscience
T4 sequence (Q9UQL6 whole entry, canonical isoform): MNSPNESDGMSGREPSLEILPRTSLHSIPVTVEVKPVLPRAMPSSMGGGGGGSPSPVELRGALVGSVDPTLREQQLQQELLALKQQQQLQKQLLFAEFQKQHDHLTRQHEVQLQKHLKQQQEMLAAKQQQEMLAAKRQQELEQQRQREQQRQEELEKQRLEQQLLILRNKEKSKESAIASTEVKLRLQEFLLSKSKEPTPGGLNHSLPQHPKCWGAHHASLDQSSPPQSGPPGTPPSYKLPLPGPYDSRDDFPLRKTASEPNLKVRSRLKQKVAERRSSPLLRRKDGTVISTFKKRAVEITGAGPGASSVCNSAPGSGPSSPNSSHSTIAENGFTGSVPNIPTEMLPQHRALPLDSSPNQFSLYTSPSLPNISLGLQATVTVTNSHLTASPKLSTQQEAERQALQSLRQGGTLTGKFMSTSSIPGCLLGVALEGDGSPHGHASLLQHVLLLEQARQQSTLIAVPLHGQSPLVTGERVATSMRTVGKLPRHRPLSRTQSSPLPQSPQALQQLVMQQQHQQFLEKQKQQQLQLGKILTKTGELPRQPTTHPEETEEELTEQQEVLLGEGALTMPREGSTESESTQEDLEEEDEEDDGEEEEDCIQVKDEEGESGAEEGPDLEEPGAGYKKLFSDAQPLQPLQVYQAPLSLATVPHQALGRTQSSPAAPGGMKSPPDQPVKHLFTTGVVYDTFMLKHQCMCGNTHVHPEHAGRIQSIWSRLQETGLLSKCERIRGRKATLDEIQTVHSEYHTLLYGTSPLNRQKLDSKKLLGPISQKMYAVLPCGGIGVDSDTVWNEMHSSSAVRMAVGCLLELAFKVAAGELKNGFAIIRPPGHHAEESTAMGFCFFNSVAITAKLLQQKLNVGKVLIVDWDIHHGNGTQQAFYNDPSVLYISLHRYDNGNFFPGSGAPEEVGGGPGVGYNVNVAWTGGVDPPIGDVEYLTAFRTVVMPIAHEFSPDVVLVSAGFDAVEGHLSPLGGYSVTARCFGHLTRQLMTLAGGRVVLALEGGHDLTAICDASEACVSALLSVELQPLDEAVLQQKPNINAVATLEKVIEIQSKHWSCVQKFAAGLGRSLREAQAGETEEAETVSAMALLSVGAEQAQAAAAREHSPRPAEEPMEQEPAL

HDAC6 = target: T5, HDAC6 (Homo sapiens, UniProt Q9UBN7); type: biochemical; conditions: HDAC isoform 6; 2 μM FAM-labeled acetylated peptide substrate, 60 min, room temperature
T5 construct: purchased BPS Bioscience
T5 sequence (Q9UBN7 1-1215): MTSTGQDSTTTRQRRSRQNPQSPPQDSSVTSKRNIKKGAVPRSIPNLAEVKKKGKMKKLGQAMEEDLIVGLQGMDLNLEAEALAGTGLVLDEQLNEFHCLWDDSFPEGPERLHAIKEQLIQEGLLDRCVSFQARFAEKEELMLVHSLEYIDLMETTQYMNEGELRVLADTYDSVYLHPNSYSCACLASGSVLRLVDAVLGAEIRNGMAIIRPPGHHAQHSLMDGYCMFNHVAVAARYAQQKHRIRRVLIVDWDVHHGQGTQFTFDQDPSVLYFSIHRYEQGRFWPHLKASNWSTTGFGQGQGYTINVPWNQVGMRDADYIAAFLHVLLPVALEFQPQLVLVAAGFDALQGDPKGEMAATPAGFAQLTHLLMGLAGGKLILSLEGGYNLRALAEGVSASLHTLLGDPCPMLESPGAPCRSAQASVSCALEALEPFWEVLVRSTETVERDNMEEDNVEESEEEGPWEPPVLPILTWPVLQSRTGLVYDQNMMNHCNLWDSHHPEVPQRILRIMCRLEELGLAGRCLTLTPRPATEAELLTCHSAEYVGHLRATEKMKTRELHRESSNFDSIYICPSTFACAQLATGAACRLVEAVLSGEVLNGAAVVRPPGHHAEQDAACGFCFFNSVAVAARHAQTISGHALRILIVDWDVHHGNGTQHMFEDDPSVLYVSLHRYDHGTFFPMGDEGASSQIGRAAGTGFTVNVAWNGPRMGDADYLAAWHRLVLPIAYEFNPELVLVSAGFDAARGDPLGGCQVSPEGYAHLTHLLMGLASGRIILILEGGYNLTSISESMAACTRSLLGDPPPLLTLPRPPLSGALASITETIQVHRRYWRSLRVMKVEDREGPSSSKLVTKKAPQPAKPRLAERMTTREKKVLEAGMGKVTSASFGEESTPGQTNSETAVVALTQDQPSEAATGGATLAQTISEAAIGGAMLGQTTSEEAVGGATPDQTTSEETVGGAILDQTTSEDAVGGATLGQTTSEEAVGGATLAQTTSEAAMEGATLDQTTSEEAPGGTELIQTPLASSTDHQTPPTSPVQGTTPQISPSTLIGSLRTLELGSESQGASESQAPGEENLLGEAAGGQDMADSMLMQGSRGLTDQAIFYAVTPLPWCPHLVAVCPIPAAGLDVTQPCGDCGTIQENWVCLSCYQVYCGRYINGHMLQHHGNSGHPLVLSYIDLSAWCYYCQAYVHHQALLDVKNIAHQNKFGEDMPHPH

HDAC7 = target: T6, HDAC7 (Homo sapiens, UniProt Q8WUI4); type: biochemical; conditions: HDAC isoform 7; 2 μM FAM-labeled acetylated peptide substrate, 60 min, room temperature
T6 construct: purchased BPS Bioscience
T6 sequence (Q8WUI4 1-952): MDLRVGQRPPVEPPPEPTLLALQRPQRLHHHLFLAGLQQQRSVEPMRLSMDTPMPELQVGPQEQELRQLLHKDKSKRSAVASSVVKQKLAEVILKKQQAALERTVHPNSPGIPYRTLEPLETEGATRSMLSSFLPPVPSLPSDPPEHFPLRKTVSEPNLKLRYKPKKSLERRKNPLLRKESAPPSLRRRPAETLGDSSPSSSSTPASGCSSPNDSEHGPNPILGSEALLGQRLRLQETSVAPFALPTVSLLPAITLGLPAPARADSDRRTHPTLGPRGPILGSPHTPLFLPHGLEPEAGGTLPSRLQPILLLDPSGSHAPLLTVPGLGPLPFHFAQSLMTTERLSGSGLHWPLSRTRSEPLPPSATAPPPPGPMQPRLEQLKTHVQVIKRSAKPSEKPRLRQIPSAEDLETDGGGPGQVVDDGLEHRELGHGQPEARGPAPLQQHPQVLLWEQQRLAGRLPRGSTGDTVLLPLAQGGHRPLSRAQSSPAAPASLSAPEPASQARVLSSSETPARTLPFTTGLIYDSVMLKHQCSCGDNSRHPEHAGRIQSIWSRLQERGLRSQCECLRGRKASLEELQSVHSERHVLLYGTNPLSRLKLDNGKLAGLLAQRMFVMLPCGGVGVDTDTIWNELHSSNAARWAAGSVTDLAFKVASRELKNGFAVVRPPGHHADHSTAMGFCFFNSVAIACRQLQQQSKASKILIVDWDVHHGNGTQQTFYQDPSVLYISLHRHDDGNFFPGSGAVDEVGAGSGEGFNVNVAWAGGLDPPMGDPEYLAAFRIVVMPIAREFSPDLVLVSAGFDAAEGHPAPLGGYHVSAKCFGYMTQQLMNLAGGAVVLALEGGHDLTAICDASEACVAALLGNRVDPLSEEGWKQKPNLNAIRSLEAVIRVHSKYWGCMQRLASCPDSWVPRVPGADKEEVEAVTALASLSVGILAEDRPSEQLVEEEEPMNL

HDAC8 = target: T7, HDAC8 (Homo sapiens, UniProt Q9BY41); type: biochemical; conditions: HDAC isoform 8; 2 μM FAM-labeled acetylated peptide substrate, 60 min, room temperature
T7 construct: purchased BPS Bioscience
T7 sequence (Q9BY41 1-377): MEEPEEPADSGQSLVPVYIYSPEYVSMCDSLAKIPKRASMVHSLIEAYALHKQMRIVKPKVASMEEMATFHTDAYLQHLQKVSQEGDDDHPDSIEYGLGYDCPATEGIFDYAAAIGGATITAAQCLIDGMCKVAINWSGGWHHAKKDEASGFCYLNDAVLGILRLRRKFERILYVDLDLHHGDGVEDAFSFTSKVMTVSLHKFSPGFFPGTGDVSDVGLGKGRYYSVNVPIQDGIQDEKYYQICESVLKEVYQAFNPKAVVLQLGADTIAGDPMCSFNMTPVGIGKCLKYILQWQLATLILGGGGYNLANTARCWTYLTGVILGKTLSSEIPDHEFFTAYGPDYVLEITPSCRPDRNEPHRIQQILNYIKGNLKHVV

HDAC9 = target: T8, HDAC9 (Homo sapiens, UniProt Q9UKV0); type: biochemical; conditions: HDAC isoform 9; 2 μM FAM-labeled acetylated peptide substrate, 60 min, room temperature
T8 construct: purchased BPS Bioscience
T8 sequence (Q9UKV0 whole entry, canonical isoform): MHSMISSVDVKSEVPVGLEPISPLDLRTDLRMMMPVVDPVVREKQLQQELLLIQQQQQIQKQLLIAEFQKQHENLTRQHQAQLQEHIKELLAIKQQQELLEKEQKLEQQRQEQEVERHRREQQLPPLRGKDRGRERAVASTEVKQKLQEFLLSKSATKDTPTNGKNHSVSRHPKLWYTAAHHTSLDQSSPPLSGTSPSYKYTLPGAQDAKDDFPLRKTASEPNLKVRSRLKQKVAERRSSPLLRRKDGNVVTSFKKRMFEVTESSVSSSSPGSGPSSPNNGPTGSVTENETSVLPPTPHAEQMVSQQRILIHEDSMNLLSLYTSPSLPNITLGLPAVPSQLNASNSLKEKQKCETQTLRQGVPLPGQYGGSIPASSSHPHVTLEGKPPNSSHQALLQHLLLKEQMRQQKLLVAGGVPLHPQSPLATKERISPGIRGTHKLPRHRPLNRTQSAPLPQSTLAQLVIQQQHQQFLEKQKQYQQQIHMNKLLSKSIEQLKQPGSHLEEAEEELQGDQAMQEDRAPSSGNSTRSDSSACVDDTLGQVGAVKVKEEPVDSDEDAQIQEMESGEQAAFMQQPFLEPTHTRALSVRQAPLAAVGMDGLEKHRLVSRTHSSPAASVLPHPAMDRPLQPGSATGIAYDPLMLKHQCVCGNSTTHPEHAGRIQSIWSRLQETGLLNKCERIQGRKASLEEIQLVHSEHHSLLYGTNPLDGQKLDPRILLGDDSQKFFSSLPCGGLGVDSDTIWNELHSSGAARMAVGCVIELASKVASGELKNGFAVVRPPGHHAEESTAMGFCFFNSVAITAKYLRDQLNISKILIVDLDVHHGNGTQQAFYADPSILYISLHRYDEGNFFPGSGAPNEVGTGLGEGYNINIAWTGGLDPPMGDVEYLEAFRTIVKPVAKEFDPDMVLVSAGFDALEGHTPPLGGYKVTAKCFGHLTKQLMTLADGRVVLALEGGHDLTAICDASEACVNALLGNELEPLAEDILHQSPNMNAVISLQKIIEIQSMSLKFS

HDAC4 = HDAC4 (Homo sapiens, UniProt P56524)
HDAC4, sequence (P56524 whole entry): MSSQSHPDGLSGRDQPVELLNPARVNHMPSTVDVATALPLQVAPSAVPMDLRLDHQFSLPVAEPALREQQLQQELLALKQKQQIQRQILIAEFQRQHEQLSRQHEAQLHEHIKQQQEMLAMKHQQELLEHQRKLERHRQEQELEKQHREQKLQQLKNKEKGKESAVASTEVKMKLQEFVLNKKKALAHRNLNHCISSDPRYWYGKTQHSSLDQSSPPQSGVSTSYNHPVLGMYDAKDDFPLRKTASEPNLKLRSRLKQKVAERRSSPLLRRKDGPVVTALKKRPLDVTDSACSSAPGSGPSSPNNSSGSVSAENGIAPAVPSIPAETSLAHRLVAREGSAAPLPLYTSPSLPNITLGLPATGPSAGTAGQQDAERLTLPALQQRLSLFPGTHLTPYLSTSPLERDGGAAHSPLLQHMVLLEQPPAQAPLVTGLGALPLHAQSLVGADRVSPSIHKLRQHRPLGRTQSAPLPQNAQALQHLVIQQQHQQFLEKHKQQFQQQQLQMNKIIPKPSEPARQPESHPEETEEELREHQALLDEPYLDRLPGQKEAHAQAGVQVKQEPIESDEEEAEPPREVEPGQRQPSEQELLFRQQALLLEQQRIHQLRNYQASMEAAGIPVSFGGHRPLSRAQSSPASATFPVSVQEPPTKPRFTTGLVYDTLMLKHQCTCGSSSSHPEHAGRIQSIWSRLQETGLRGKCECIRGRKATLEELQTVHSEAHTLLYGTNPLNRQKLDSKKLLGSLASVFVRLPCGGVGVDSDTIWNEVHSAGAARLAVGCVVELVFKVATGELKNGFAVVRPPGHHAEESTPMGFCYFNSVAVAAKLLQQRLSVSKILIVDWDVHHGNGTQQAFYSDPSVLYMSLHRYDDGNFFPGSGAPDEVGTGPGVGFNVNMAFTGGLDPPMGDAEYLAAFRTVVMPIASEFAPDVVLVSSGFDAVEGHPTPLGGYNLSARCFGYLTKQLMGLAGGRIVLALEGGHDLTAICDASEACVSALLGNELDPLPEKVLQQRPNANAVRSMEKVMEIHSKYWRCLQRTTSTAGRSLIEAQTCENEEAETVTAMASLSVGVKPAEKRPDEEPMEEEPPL
Description: The following microfluidic lab-on-a-chip assay as described herein was used to assay the compounds of the invention.
All HDACs were purchased from BPS Bioscience. All other reagents were purchased from Sigma. Caliper EZ reader II system was used to collect all the data.
In short, purified HDACs were incubated with 2 μM carboxyfluorescein (FAM)-labeled acetylated peptide substrate and test compound for 60 min at room temperature, in HDAC assay buffer that contained 50 mM HEPES (pH 7.4), 100 mM KCl, 0.01% BSA and 0.001% Tween-20. […] Substrate and product were separated electrophoretically and fluorescence intensity in the substrate and product peaks was determined and analyzed by Labchip EZ Reader. The reactions were performed in duplicate for each sample. IC50 values were automatically calculated by Origion8 using 4 Parameter Logistic Model. The percent inhibition was plotted against the compound concentration, and the IC50 value was determined from the logistic dose-response curve fitting by Origin 8.0 software.

T1 sequence (Q13547 whole entry, canonical isoform): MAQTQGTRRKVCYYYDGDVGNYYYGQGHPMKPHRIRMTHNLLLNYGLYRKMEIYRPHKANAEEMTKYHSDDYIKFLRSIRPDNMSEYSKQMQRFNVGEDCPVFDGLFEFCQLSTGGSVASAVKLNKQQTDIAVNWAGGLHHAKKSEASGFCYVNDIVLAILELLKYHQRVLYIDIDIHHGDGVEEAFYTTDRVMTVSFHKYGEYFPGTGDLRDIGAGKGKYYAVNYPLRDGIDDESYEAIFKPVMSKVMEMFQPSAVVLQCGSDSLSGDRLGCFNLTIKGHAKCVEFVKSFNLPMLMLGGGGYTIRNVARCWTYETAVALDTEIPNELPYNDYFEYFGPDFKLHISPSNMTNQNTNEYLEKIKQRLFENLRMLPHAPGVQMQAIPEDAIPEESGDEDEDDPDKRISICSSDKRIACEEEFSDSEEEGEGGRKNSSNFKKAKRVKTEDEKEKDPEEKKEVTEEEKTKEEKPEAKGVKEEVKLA

IC50 (HDAC1) | IC50 (HDAC2) | IC50 (HDAC3) | IC50 (HDAC5) | IC50 (HDAC6) | IC50 (HDAC7) | IC50 (HDAC8) | IC50 (HDAC9) | IC50 (HDAC4) | SMILES
> 33 µM | > 33 µM | > 33 µM | > 33 µM | 2.68 µM | > 33 µM | 2.16 µM | > 33 µM | > 33 µM | COc1ccc(CNC2C=C(C(=O)NO)CCC2)cc1 (stereo not shown) [Compound 7A, N-Hydroxy-3-((4-Methoxybenzyl)Amino)Cyclohex-1-Enecarboxamide]
2.1 µM | 1.7 µM | 3.22 µM | 10.9 µM | 0.106 µM | 6.91 µM | 0.055 µM | 16 µM | 7.93 µM | O=C(NO)C1=CC(Sc2ccccc2)CCC1 (stereo not shown) [Compound 10A, N-Hydroxy-3-(Phenylthio)Cyclohex-1-Enecarboxamide]
> 33 µM | > 33 µM | > 33 µM | > 33 µM | 6.2 µM | > 33 µM | 23.2 µM | > 33 µM | > 33 µM | COc1ccc(C(=O)N2CCC=C(C(=O)NO)C2)cc1 [Compound 12A]
0.423 µM | 1.4 µM | 0.493 µM | 15.2 µM | 0.011 µM | 2.32 µM | 0.523 µM | 11.7 µM | 10.1 µM | O=C(NO)C1=CCCCC1 [Compound 19A, N-Hydroxycyclohex-1-Enecarboxamide]
1.08 µM | 1.9 µM | 1.4 µM |  | 0.016 µM | 26.8 µM | 1.38 µM | > 33 µM | > 33 µM | O=C(NO)C1=CCOCC1 [Compound 20A, N-Hydroxy-3,6-Dihydro-2H-Pyran-4-Carboxamide]
0.727 µM | 3.44 µM | 0.734 µM | 21.1 µM | 0.024 µM |  | 1.85 µM | > 33 µM | 29.7 µM | O=C(NO)C1=CCCC1 [Compound 21A, N-Hydroxycyclopent-1-Enecarboxamide]
> 33 µM | > 33 µM | > 33 µM | > 33 µM | > 33 µM | > 33 µM | 9.14 µM | > 33 µM | > 33 µM | O=C(NO)C1=C[C@@H](O)[C@@H](O)[C@H](O)C1 [Compound 22A, (3R,4S,5R)-N,3,4,5-Tetrahydroxycyclohex-1-Enecarboxamide]
0.275 µM | 0.584 µM | 0.713 µM | 23.6 µM | 0.049 µM | 17.9 µM | 1.13 µM | 11.2 µM | 16 µM | CC1=C(C(=O)NO)Cc2ccccc21 [Compound 29A, N-Hydroxy-3-Methyl-1H-Indene-2-Carboxamide]
0.084 µM | 0.375 µM | 0.099 µM | 7.41 µM | 0.014 µM | 11.6 µM | 0.494 µM | 13 µM | 14.8 µM | Cc1ccc(S(=O)(=O)N2CC=C(C(=O)NO)CC2)cc1 [Compound 31A, N-Hydroxy-1-Tosyl-1,2,3,6-Tetrahydropyridine-4-Carboxamide]
1.86 µM | 2.6 µM | 2.32 µM | 14 µM | 0.014 µM | 2.46 µM | 0.626 µM | 4.08 µM | 4.65 µM | O=C(NO)C1=Cc2ccccc2CC1 [Compound 32A, N-Hydroxy-3,4-Dihydronaphthalene-2-Carboxamide]

SMILES | IC50 (HDAC1) | IC50 (HDAC2) | IC50 (HDAC3) | IC50 (HDAC5) | IC50 (HDAC6) | IC50 (HDAC7) | IC50 (HDAC8) | IC50 (HDAC9) | IC50 (HDAC4)
CN1CCC=C(C(=O)NO)C1 [Compound 30A, N-Hydroxy-1-Methyl-1,2,5,6-Tetrahydropyridine-3-Carboxamide] | > 33 µM | > 33 µM | > 33 µM | > 33 µM | > 33 µM | > 33 µM | 2.63 µM | > 33 µM | > 33 µM
